# Test results from US7629150B2, “Transformed cell harboring DNA or RNA encoding sugar chain synthesizing agent having β1,3-N-acetylglucosaminyltransferase activity” (Kyowa Hakko Kirin Co., Ltd., priority 2000, dated 2009).
# Tests used:
# G6sec2 = molecular target: T1, G6sec2 (Homo sapiens, UniProt Q9BYG0); assay: β1,3-N-acetylglucosaminyltransferase activity of purified FLAG peptide-fused G6 polypeptide, 2-aminobenzamide-labeled oligosaccharide substrates; assay type: biochemical; settings: for Relative activity (%) Test 1 G6sec2 / Relative activity (%) Test 2 G6sec2: 2-aminobenzamide-labeled oligosaccharides, LNnT defined as 100%; for Relative activity (%) Test 2 G6sec2: enzyme prepared again
# T1 construct: made in house; host or cells: Sf21 insect cells infected with pVL1393-F2G6sec2-derived recombinant baculovirus
# T1 sequence (Q9BYG0 39-378): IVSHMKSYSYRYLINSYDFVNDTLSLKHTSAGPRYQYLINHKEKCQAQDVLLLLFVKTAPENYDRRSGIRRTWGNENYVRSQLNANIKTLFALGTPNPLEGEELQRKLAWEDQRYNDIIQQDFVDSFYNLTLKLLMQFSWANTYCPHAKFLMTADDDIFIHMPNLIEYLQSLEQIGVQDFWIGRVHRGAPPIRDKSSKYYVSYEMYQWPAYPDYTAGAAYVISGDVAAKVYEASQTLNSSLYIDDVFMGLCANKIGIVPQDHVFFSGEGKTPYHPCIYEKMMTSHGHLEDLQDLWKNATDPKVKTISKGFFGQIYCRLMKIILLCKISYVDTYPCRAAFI
# Experimental: (§1) β1,3-N-Acetylglucosaminyltransferase activity of the FLAG peptide-fused G6 polypeptide secreted and produced in insect cells was measured by using the eluate prepared in Example 8(6). The method of Example 7 was used for the activity measurement.
# (§2) As substrates, oligosaccharides [LNnT, Galβ1-4GlcNAcβ1-3Galβ1-4GlcNAc (hereinafter referred to as “2LN”), Galβ1-4GlcNAcβ1-3Galβ1-4GlcNAcβ1-3Galβ1-4GlcNAc (hereinafter referred to as “3LN”), Galβ1-4GlcNAcβ1-3Galβ1-4GlcNAcβ1-3Galβ1-4GlcNAcβ1-3Galβ1-4GlcNAc (hereinafter referred to as “4LN”), Galβ1-4GlcNAcβ1-3Galβ1-4GlcNAcβ-3Galβ1-4GlcNAcβ1-3Galβ1-4GlcNAcβ1-3Galβ1-4GlcNAc (hereinafter referred to as “5LN”), or Galβ1-4(SO3-6)GlcNAcβ1-3Galβ1-4(SO3-6)GlcNAc (hereinafter referred to as “L2L2”)] were labeled with 2-aminobenzamide and used. 2-Aminobenzamide-labeling of oligosaccharides was carried out using SIGMA 2AB glycan labeling kit (manufactured by Oxford Glycoscience) according to the manufacture's instructions of the kit. LNnT was purchased from Oxford Glycosystems. Other oligosaccharides were obtained from Seikagaku Corporation.
# Specifically, the reaction was carried out at 37° C. for 16 hours in 20 μl of an assay solution [150 mmol/l sodium cacodylate (pH 7.2), 50 mmol/l UDP-GlcNAc (manufactured by SIGMA), 0.4% Triton CF-54, 10 mmol/l MnCl2, 5 μmol/12-aminobenzamide-labeled sugar chain substrate, the above purified enzyme solution], and then the product was detected by high performance liquid chromatography (HPLC, details will be described below). As the enzyme, an eluate (1.5 μl) prepared from a culture supernatant of Sf21 infected with the recombinant virus derived from pVL1393-F2G6sec1 or an eluate (1.4 μl) prepared from a culture supernatant of Sf21 infected with the recombinant virus derived from pVL1393-F2G6sec2, prepared in Example 8(6), was used.
# (§3) The assay solution after completion of the reaction was treated at 100° C. for 5 minutes and then mixed with 50 μl of pure water for HPLC and centrifuged at 10,000×g for 5 minutes to obtain the supernatant. To a tube containing the assay solution, 50 μl of pure water for HPLC was added again, the tube was washed, and suparnatant was obtained by centrifugation at 10,000×g for 5 minutes and was combined with the first supernatant. Next, the supernatant was passed through Ultrafree-MC column (manufactured by Millipore) and a portion thereof (10 μl) was subjected to HPLC. The Ultrafree-MC column was used according to the method described in the manufacture's instructions attached thereto.
# (§4) The HPLC was carried out using TSK-gel ODS-80Ts Column (4.6×300 mm; manufactured by TOSOH) as a column and 0.02 mol/l ammonium acetate buffer containing 7% methanol (pH 4.0) as an eluant at an elution temperature of 50° C. and a flow rate of 1 ml/min.
# (§5) The product was detected using a fluorescence spectrophotometer FP-920 (manufactured by JASCO Corporation) (excitation wavelength: 330 nm, radiation wavelength: 420 nm).
# Also, a purified enzyme (G6sec2) was again prepared using the method shown in Example 8(6), its substrate specificity was again examined, and the results are also shown in Table 1 (Test 2 in Table 1). The purified enzyme (280 μl) was prepared from 30 ml of a culture supernatant of Sf21 infected with the recombinant virus derived from pVL1393-F2G6sec2, and the assay was carried out using a 4 μl portion thereof. Relative activities when the activity measured using 2-aminobenzamide-labeled LNnT as the substrate is defined as 100% are shown in the table.
# G6sec1 = molecular target: T2, G6sec1 (Homo sapiens, UniProt Q9BYG0); assay: as above; assay type: biochemical; settings: for Relative activity (%) Test 1 G6sec1: 2-aminobenzamide-labeled oligosaccharides, LNnT defined as 100%
# T2 construct: made in house; host or cells: Sf21 insect cells infected with pVL1393-F2G6sec1-derived recombinant baculovirus
# T2 sequence (Q9BYG0 36-378): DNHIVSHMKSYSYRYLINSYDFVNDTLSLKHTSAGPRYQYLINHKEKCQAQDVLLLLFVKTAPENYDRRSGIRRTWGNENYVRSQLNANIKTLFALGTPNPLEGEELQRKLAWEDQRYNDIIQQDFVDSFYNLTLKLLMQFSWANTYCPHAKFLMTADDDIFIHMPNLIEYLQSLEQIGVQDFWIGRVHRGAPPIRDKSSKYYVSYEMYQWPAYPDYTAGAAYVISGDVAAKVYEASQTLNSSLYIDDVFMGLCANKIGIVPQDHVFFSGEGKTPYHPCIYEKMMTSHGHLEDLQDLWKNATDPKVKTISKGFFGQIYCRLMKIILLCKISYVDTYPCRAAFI
# Experimental: as §1, §2
# Specifically, the reaction was carried out at 37° C. for 16 hours in 20 μl of an assay solution [150 mmol/l sodium cacodylate (pH 7.2), 50 mmol/l UDP-GlcNAc (manufactured by SIGMA), 0.4% Triton CF-54, 10 mmol/l MnCl2, 5 μmol/12-aminobenzamide-labeled sugar chain substrate, the above purified enzyme solution], and then the product was detected by high performance liquid chromatography (HPLC, details will be described below). […]
# as §3, §4, §5
Relative activity (%) Test 1 G6sec2 (G6sec2) [%],Relative activity (%) Test 2 G6sec2 (G6sec2) [%],Relative activity (%) Test 1 G6sec1 (G6sec1) [%],"conversion efficiency of the substrate into the product (G6sec2; G6sec2 eluate 1.4 μl, 2-aminobenzamide-labeled substrate, 37° C., 16 hours (Test 1)) [%]","conversion efficiency into the product (G6sec2; G6sec2 prepared again, 4 μl, 2-aminobenzamide-labeled substrate (Test 2)) [%]",conversion efficiency of the substrate (G6sec1; G6sec1-adsorbed ANTI-FLAG M1 AFFINITY GEL used as enzyme) [%],"conversion efficiency of the substrate into the product (G6sec1; G6sec1 eluate 1.5 μl, 2-aminobenzamide-labeled substrate, 37° C., 16 hours (Test 1)) [%]",Structure (SMILES)
86.8,65.3,81.4,–,–,–,–,"CC(=O)N[C@H]1[C@H](O[C@H]2[C@@H](O)[C@@H](CO)O[C@@H](O[C@H]3[C@H](O)[C@@H](NC(C)=O)C(O)O[C@@H]3CO)[C@@H]2O)O[C@H](CO)[C@@H](O[C@@H]2O[C@H](CO)[C@H](O)[C@H](O)[C@H]2O)[C@@H]1O (stereo partly shown) [2LN, Galβ1-4GlcNAcβ1-3Galβ1-4GlcNAc]"
100,100,100,11.2,26.2,6.64,9.85,"CC(=O)N[C@H]1[C@H](O[C@H]2[C@@H](O)[C@@H](CO)O[C@@H](O[C@H]3[C@H](O)[C@@H](O)C(O)O[C@@H]3CO)[C@@H]2O)O[C@H](CO)[C@@H](O[C@@H]2O[C@H](CO)[C@H](O)[C@H](O)[C@H]2O)[C@@H]1O (mixture of isomers) [LNnT, lacto-N-neotetraose]"
